The record followed here is ChEMBL document CHEMBL3769309, “Design, synthesis and biological evaluation of bisthiazole-based trifluoromethyl ketone derivatives as potent HDAC inhibitors with improved cellular efficacy” (Eur J Med Chem, 2016).

Molecules are shown by their SMILES. Where only a bound is given, the exact number is not on record here.

Usually IC50 stands for the concentration that gives 50% inhibition.

One experiment deals with Histone deacetylase 4 (Homo sapiens, UniProt P56524). Nature of the experiment: Inhibition of full length His6-tagged GST-fused recombinant human HDAC4 expressed in High5 insect cells using Ac-Lys-Tyr-Lys (e-acetyl)-AMC as substrate after 24 hrs by fluorescence assay. The class given is cell-based.
Histone deacetylase 4, sequence (P56524 whole entry, the tested form may be a part): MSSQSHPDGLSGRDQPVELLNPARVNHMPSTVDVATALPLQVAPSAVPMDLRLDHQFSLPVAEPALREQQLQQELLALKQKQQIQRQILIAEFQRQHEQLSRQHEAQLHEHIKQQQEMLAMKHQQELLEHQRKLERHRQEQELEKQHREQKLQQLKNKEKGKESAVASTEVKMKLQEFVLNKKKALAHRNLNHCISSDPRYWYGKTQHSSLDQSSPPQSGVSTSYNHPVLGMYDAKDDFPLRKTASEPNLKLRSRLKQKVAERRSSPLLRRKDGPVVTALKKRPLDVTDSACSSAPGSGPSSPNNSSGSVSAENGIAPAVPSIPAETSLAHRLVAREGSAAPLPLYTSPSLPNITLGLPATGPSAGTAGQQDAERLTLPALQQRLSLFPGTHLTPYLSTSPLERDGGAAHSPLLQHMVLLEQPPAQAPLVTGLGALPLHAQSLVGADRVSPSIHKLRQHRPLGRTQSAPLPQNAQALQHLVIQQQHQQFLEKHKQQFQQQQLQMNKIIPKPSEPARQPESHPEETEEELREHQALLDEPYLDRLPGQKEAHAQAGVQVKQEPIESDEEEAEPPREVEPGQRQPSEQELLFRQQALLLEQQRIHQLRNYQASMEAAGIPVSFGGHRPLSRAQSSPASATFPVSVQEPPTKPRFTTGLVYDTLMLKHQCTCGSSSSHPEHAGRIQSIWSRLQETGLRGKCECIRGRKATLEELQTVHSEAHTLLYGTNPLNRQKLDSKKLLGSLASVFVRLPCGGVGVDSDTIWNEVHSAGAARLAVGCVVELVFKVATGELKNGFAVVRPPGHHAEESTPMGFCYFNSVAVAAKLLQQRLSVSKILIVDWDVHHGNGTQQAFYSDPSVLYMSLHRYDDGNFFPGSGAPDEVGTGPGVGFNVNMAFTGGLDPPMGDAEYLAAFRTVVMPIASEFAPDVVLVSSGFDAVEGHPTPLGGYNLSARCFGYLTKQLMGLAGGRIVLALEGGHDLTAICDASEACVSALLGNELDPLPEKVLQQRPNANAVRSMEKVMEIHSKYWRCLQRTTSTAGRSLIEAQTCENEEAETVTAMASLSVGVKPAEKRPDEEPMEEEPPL
Experiment [1] concerns the target T1, Protein deacetylase HDAC6 (Homo sapiens, UniProt Q9UBN7).
T1 sequence (Q9UBN7 whole entry): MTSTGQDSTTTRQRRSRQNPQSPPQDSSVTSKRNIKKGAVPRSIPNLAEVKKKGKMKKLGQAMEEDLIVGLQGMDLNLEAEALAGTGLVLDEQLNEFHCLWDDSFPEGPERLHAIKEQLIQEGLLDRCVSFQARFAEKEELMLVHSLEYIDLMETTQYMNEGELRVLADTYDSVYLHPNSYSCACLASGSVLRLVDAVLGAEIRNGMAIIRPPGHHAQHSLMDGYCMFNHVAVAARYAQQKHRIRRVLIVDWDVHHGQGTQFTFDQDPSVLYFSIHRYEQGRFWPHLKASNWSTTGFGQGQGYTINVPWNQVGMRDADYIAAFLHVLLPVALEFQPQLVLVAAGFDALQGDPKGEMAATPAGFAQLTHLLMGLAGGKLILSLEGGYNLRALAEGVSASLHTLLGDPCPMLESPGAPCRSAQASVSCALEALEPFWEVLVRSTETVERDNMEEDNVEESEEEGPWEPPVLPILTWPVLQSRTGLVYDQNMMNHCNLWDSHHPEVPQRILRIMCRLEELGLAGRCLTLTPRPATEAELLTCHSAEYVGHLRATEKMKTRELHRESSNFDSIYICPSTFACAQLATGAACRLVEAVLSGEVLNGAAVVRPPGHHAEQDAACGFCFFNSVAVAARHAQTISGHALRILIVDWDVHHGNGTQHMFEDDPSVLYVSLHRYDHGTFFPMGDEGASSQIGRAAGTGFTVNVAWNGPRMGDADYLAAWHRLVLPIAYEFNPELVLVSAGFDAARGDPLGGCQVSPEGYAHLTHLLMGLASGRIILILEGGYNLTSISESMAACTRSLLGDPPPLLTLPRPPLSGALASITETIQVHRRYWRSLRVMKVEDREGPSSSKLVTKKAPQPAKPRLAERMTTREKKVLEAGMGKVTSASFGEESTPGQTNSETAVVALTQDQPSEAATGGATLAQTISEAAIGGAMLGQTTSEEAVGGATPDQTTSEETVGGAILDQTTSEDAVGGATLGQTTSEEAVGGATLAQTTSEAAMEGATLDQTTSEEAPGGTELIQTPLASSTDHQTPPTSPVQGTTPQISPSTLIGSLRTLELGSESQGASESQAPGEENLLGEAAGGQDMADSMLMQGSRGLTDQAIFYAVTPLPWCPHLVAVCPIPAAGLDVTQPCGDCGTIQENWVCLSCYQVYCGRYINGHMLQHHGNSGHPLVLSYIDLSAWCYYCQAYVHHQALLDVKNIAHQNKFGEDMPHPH
Kind of experiment: Inhibition of full length His6-tagged GST-fused recombinant human HDAC6 expressed in High5 insect cells using Boc-Lys (e-acetyl)-AMC as substrate after 3 hrs by fluorescence assay. The class given is cell-based.

The nature of experiment [2]: Antiproliferative activity against human MM1S cells after 72 hrs by CellTiter 96 aqueous non-radioactive cell proliferation assay. Conditions: MM1.S. The class given is functional, cell-based.
In a further experiment the target is Histone deacetylase 1 (Homo sapiens, UniProt Q13547). Kind of experiment: Inhibition of full length His6-tagged GST-fused recombinant human HDAC1 expressed in High5 insect cells using Ac-Lys-Tyr-Lys (e-acetyl)-AMC as substrate after 24 hrs by fluorescence assay. The class given is cell-based.
Histone deacetylase 1, sequence (Q13547 whole entry, the tested form may be a part): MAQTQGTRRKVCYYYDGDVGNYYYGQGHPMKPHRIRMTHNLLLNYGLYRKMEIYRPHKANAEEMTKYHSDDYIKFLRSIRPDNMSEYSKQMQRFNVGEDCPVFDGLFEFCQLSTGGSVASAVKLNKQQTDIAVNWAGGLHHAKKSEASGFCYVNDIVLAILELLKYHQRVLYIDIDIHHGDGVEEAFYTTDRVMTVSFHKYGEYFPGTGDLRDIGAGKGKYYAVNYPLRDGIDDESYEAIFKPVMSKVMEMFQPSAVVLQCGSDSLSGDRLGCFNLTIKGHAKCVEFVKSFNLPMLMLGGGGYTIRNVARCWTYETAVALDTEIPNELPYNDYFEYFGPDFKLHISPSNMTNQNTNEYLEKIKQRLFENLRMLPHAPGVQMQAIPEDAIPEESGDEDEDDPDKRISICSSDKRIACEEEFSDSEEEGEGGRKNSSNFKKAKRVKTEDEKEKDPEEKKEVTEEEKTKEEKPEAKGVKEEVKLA
For a further experiment, the target named is Histone deacetylase 3 (Homo sapiens, UniProt O15379). Nature of the experiment: Inhibition of full length His6-tagged GST-fused recombinant human HDAC3 expressed in High5 insect cells using Ac-Lys-Tyr-Lys (e-acetyl)-AMC as substrate after 24 hrs by fluorescence assay. The class given is cell-based.
Histone deacetylase 3, sequence (O15379 whole entry, the tested form may be a part): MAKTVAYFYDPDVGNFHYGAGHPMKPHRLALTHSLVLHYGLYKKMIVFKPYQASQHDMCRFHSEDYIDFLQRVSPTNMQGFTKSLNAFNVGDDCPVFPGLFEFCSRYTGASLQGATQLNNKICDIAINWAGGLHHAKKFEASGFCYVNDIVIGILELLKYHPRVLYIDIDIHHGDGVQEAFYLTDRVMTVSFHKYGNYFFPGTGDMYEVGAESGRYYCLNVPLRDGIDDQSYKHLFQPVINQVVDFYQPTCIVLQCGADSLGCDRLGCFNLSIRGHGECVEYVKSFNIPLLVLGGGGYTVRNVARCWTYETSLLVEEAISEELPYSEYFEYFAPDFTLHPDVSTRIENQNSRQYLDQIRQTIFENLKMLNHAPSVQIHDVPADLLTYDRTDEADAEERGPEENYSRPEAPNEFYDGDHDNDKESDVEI
Experiment [3] deals with RPMI-8226. Nature of the experiment: Induction of apoptosis in human RPMI8226 cells assessed as late apoptotic cells at 0.3 uM after 48 hrs by annexin V-FITC/propidium iodide staining-based flow cytometry (reference value: 4.4%). The class given is functional. On the technique in general: Flow cytometry measures light scatter and fluorescence of single cells or particles in a stream.

The test system of experiment [4] is RPMI-8226. Kind of experiment: Induction of apoptosis in human RPMI8226 cells assessed as dead cells at 1 uM after 48 hrs by annexin V-FITC/propidium iodide staining-based flow cytometry (reference value: 2%). The class given is functional.
Another experiment deals with LP-1. Kind of experiment: Antiproliferative activity against human LP-1 cells after 72 hrs by CellTiter 96 aqueous non-radioactive cell proliferation assay. The class given is functional, cell-based. Conditions: LP-1, 72 h.
In experiment [5] the test system is RPMI-8226. Kind of experiment: Induction of apoptosis in human RPMI8226 cells assessed as viable cells at 0.3 uM after 48 hrs by annexin V-FITC/propidium iodide staining-based flow cytometry (reference value: 87.2%). To be noted: RPMI-8226, 48 h, read-out: Activity. It counts as functional.
Experiment [6] deals with RPMI-8226. Kind of experiment: Induction of apoptosis in human RPMI8226 cells assessed as viable cells at 1 uM after 48 hrs by annexin V-FITC/propidium iodide staining-based flow cytometry (reference value: 87.2%). To be noted: RPMI-8226, 48 h, read-out: Activity. It counts as functional.
Experiment [7] is described as follows: Antiproliferative activity against human NCI-H929 cells after 72 hrs by CellTiter 96 aqueous non-radioactive cell proliferation assay. The class given is functional, cell-based. To be noted: NCI-H929, 72 h.
Experiment [8] relates to RPMI-8226. Kind of experiment: Induction of apoptosis in human RPMI8226 cells assessed as early apoptotic cells at 0.3 uM after 48 hrs by annexin V-FITC/propidium iodide staining-based flow cytometry (reference value: 6.3%). It counts as functional.
For experiment [9], the system named is RPMI-8226. Kind of experiment: Induction of apoptosis in human RPMI8226 cells assessed as increase in cleaved PARP level after 24 hrs by Western immunoblotting method. It counts as functional, cell-based. Background: Immunoblotting shows a protein as a band on a membrane.
The nature of experiment [10]: Antiproliferative activity against human Mino cells after 72 hrs by CellTiter 96 aqueous non-radioactive cell proliferation assay. It counts as functional, cell-based.
The subject of experiment [11] is RPMI-8226. Kind of experiment: cells. The class given is functional. To be noted: Homo sapiens, RPMI-8226, 48 h.
For experiment [12], the system named is RPMI-8226. Nature of the experiment: Induction of apoptosis in human RPMI8226 cells assessed as early apoptotic cells at 1 uM after 48 hrs by annexin V-FITC/propidium iodide staining-based flow cytometry (reference value: 6.3%). It counts as functional.
Experiment [13] is described as follows: Antiproliferative activity against human RPMI8226 cells after 72 hrs by CellTiter 96 aqueous non-radioactive cell proliferation assay. It counts as functional, cell-based. To be noted: RPMI-8226, 72 h.
The test system of experiment [14] is RPMI-8226. Kind of experiment: Induction of apoptosis in human RPMI8226 cells assessed as dead cells at 0.3 uM after 48 hrs by annexin V-FITC/propidium iodide staining-based flow cytometry (reference value: 2%). The class given is functional.
The test system of experiment [15] is RPMI-8226. Nature of the experiment: Induction of apoptosis in human RPMI8226 cells assessed as late apoptotic cells at 1 uM after 48 hrs by annexin V-FITC/propidium iodide staining-based flow cytometry (reference value: 4.4%). It counts as functional.
A short description of experiment [16]: Antiproliferative activity against human JeKo1 cells after 72 hrs by CellTiter 96 aqueous non-radioactive cell proliferation assay. The class given is functional, cell-based. Conditions: JeKo-1, 72 h.

Take `O=C(NCCCCC(=O)C(F)(F)F)c1nc(-c2nc3c(s2)CCCC3)sc1C1CC1`: the IC50 on Histone deacetylase 4 is 23.4 nM.
On the same count and under the same terms, as for `O=C(NCCCCCC(=O)C(F)(F)F)c1nc(-c2nccs2)sc1C1CC1`, the figure is 133 nM; as for `CC(C)Cc1sc(-c2nccs2)nc1C(=O)NCCCCC(=O)C(F)(F)F`, 120 nM.
Consider `Nc1ccccc1NC(=O)CCCCNC(=O)c1nc(-c2nccs2)sc1C1CC1`, for which, on Histone deacetylase 4, the IC50 is 2090 nM.
With `Cc1cnc(-c2nc(C(=O)NCCCCC(=O)C(F)(F)F)c(C3CC3)s2)s1`, the results for the IC50 (on Histone deacetylase 4; in [1]) were 32 nM and 23.4 nM, respectively.
Take `O=C(CCCCCCC(=O)Nc1ccccc1)NO` [VORINOSTAT]: the IC50 in [2] amounted to 820 nM.
As to `O=C(NCCCCC(O)C(F)(F)F)c1nc(-c2nccs2)sc1C1CC1` (stereo not drawn), the IC50 at Histone deacetylase 1 was more than 10000 nM; at Histone deacetylase 3, 8860 nM; at Histone deacetylase 4, more than 10000 nM; in [1], more than 10000 nM.
Take `O=C(NCCCCC(=O)C(F)(F)F)c1nc(-c2nccs2)sc1Cc1ccccc1`: the IC50 at Histone deacetylase 1 amounted to 66.1 nM; at Histone deacetylase 3 it was 65.1 nM; at Histone deacetylase 4, 68.2 nM; in [1], 58.4 nM.
For `O=C(NCCCCCNC(=O)c1nc(-c2nccs2)sc1C1CC1)c1cccc(-c2noc(C(F)(F)F)n2)c1` the same measures were more than 10000 nM, more than 10000 nM, more than 10000 nM and more than 10000 nM.
As to `O=C(NCCCC(=O)C(F)(F)F)c1nc(-c2nccs2)sc1C1CC1`, the IC50 on Histone deacetylase 4 is more than 10000 nM.
For `O=C(NCCCCC(=O)C(F)(F)F)c1nc(-c2nccs2)sc1C1CC1`, the Activity is 23.9% in the experiment with RPMI-8226 [3]; 7.7% in the experiment on RPMI-8226 [4]; 15.4% in the experiment on RPMI-8226 [8]; “Dose-dependent effect” with RPMI-8226 [9]; 13.4% in the experiment on RPMI-8226 [12]; 2.8% in the experiment on RPMI-8226 [14]. For the same compound, the Activity in the experiment on RPMI-8226 [15] turned out to be 50.7%. Also, the IC50 with LP-1 is 370 nM; on Histone deacetylase 4 it was 31.5 nM; in experiment [2] it was 390 nM; in experiment [7], 1230 nM; in experiment [10] it was 120 nM; in [13], 85 nM. Also, the IC50 in [16] was found to be 64 nM. In addition, the viability at 0.3 µM in the experiment on RPMI-8226 [5] is 57.8%. In addition, the viability at 1 µM in the experiment on RPMI-8226 [6] turned out to be 28.2%. This compound also registered a viability at 3 µM with RPMI-8226 [11] of 21.1%.
As to `O=C(NO)NCCCCNC(=O)c1nc(-c2nccs2)sc1C1CC1`, the IC50 at Histone deacetylase 4 was more than 10000 nM.
